Earlier results on 1 molecule are cited in US20250275944A1, “RELATIVE UNDERSUPPLY OF AN AMYLOID BETA AGGREGATION INHIBITOR FOR IMPROVED DETOXIFYING EFFECTS” (Galimedix Therapeutics Inc, priority 2022, published 2025).

The structures appear in SMILES notation.

The series concerns the target amyloid beta Aβ1-42 (Homo sapiens, UniProt P05067). The conditions noted are these: read-out: binding affinity to amyloid beta Aβ1-42; cited from earlier work.

Chain of amyloid beta Aβ1-42 (P05067 672-713 limits assumed): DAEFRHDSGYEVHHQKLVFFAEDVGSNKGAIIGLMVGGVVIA

Take `CC(C)(NC(=O)C(N)Cc1c[nH]c2ccccc12)C(=O)O` (stereo not shown) [GAL-101, 2-[2-Amino-3-(1H-indol-3-yl)-propionylamino]-2-methyl-propionic acid]: the Kd was 28.9 ± 2.9 nM.
